Data reported in patent US6812222B1, “Biocompatible aqueous solution for use in continuous ambulatory peritoneal dialysis” (priority 1995, dated 2004).
Like-named read-outs stand apart in the source and are kept apart here.

What was measured:
[1] = system: human mesothelial cells; assay: Stimulation of hyaluronic acid in tissue culture of human mesothelial cells; format: cell-based
[2] = system: peritoneal membrane; format: in vivo, rats; conditions: for Hyaluronic Acid in Dialysate Fluid / Mass Transfer Area Coef for Urea / Peritoneal Clearance of Urea: 4 hours dwell; for Net Ultrafiltration: pH 7.35-7.4, 4 hours dwell, 20 mL infused
Experimental: In experiments in which rats were dialyzed for 4 hours with Hanks Balances salt solution with either glucose or N-acetylglucosamine added at a concentration of 75 mM or 214 mM, at a pH of 7.35-7.4. The net utrafiltration was calculated as the difference between the drained volume of dialysate after 4 hours dwell time in the peritoneal cavity and the infused volume (20 mL) of the dialysis fluid. As well, the concentration of urea and creatinine in the blood and the dialysis fluid were measured. Permeability of the peritoneal membrane to urea and creatinine, expressed as the Mass Transfer Area Coefficient which was calculated according to the method of Krediet et al (Blood Purif 4: 194, 1986). […] In addition, the inclusion of NAG in the dialysate fluid stimulated the synthesis of hyaluronic acid, as shown by the more than 100% increase in amount of hyaluronic acid secreted in the dialysis fluid compared to the glucose treated rats.

[3] = system: chemically induced inflammatory bowel reaction with bowel wall thickening or fibrosis; assay: Colon fibrosis (weight of 8 cm of colon) after intrarectal TNB/ethanol in rats; format: in vivo; conditions: for Colon fibrosis (as measured by weight of 8 cm of colon), mean ± SEM: rats
From the text: In animal models of inflammatory bowel disease the colon becomes fribrotic, as does the peritoneum as a result of chronic intraperitoneal dialysis. […] It is to be expected that in a similar manner NAG will prevent the development of fibrosis of the peritoneum in CAPD patients. [table]

[4] = 7.5% solution; cited from earlier work
[5] = versus glucose, rats dialyzed 4 hours

| Albumin or total protein loss into the dialysis fluid (in words) ([2]; rat, in vivo) | Compound | Stimulation of hyaluronic acid [1] | Hyaluronic Acid in Dialysate Fluid ([2]; 75 mM in dialysis fluid) [µg/L] | Mass Transfer Area Coef for Urea ([2]; 75 mM in dialysis fluid) [mL/min] | Peritoneal Clearance of Urea ([2]; 75 mM in dialysis fluid) [mL/min] | Net Ultrafiltration ([2]; 75 mM in dialysis fluid) [mL/4 hrs] | Hyaluronic Acid in Dialysate Fluid ([2]; 214 mM in dialysis fluid) [µg/L] | Mass Transfer Area Coef for Urea ([2]; 214 mM in dialysis fluid) [mL/min] | Peritoneal Clearance of Urea ([2]; 214 mM in dialysis fluid) [mL/min] | Net Ultrafiltration ([2]; 214 mM in dialysis fluid) [mL/4 hrs] | Increase in amount of hyaluronic acid secreted in the dialysis fluid ([2]; compared to the glucose treated rats) | Net ultrafiltration (in words) [2, 5] | Peritoneal clearance of urea (in words) [2, 5] | Colon fibrosis (as measured by weight of 8 cm of colon), mean ± SEM ([3]; 25 mg NAG/kg BWt intrarectal 1 hr before TNB/EtOH) [gm] | Colon fibrosis (as measured by weight of 8 cm of colon), mean ± SEM ([3]; 50 mg NAG/kg BWt intrarectal 1 hr before TNB/EtOH) [gm] | Colon fibrosis (as measured by weight of 8 cm of colon), mean ± SEM ([3]; 100 mg NAG/kg BWt intrarectal 1 hr before TNB/EtOH) [gm] | Fibrotic reaction to the inflammatory stimulus ([3]; solution of NAG administered into the bowel of rats) | Osmolality [4] [mOsm/kg] | pH of solution [4] |
| --- | --- | --- | --- | --- | --- | --- | --- | --- | --- | --- | --- | --- | --- | --- | --- | --- | --- | --- | --- |
| without increasing | CC(=O)N[C@H]1C(O)O[C@H](CO)[C@@H](O)[C@@H]1O (stereo partly shown) [NAG, N-acetylglucosamine] | stimulation of hyaluronic acid by N-acetylglucosamine was confirmed | 226 ± 93 | 0.287 ± 0.13 | 18.4 ± 2.1 | −0.11 ± 1.6 | 217 | 0.262 ± 0.15 | 30.0 | 14.45 | more than 100% | statistically significant increase | statistically significant increase | 1.669 ± 0.142 | 1.339 ± 0.155 | 1.150 ± 0.068 | reduces in a dose dependent manner |  |  |
|  | Icodextrin |  |  |  |  |  |  |  |  |  |  |  |  |  |  |  |  | 282 | 5.3 |
